Laboratory results as given in PMC9948168, “Vanillin-Based Indolin-2-one Derivative Bearing a Pyridyl Moiety as a Promising Anti-Breast Cancer Agent via Anti-Estrogenic Activity” (ACS Omega, 2023).

Columns and labels:
Experiment in all cases: NCI-60 one-dose screening
Assay type in all cases: cell-based
CAKI-1 = conditions: Homo sapiens, CAKI-1, Renal Cancer, read-out: GI (%)
CCRF-CEM = conditions: Homo sapiens, Leukemias, read-out: GI (%)
HCC-2998 = conditions: Homo sapiens, HCC-2998, Colon Cancer, read-out: GI (%)
HL-60(TB) = conditions: Homo sapiens, Leukemias, read-out: GI (%)
HOP-92 = conditions: Homo sapiens, HOP-92, Non-Small Cell Lung Cancer, read-out: GI (%)
HS 578T = conditions: Homo sapiens, Breast Cancer, read-out: GI (%)
M14 = conditions: Homo sapiens, M14, Melanoma, read-out: GI (%)
MCF7 = conditions: Homo sapiens, MCF7, 10 μM; MCF7, Breast Cancer; read-out: GI (%)
MDA-MB-231/ATCC = conditions: Homo sapiens, Breast Cancer, read-out: GI (%)
MDA-MB-468 = conditions: Homo sapiens, MDA-MB-468, Breast Cancer, read-out: GI (%)
NCI-H522 = conditions: Homo sapiens, NCI-H522, Non-Small Cell Lung Cancer, read-out: GI (%)
OVCAR-8 = conditions: Homo sapiens, OVCAR-8, Ovarian Cancer, read-out: GI (%)
PC-3 = conditions: Homo sapiens, PC-3, Prostate Cancer, read-out: GI (%)
RPMI-8226 = conditions: Homo sapiens, RPMI-8226, Leukemias, read-out: GI (%)
RXF 393 = conditions: Homo sapiens, RXF 393, Renal Cancer, read-out: GI (%)
SF-268 = conditions: Homo sapiens, SF-268, CNS Cancer, read-out: GI (%)
SK-MEL-28 = conditions: Homo sapiens, SK-MEL-28, Melanoma, read-out: GI (%)
SK-MEL-5 = conditions: Homo sapiens, SK-MEL-5, Melanoma, read-out: GI (%)
SK-OV-3 = conditions: Homo sapiens, SK-OV-3, Ovarian Cancer, read-out: GI (%)
SN12C = conditions: Homo sapiens, Renal Cancer, read-out: GI (%)
SNB-19 = conditions: Homo sapiens, SNB-19, CNS Cancer, read-out: GI (%)
SNB-75 = conditions: Homo sapiens, SNB-75, CNS Cancer, read-out: GI (%)
T-47D = conditions: Homo sapiens, T47D, Breast Cancer, read-out: GI (%)
UACC-62 = conditions: Homo sapiens, UACC-62, Melanoma, read-out: GI (%)

For `COc1cc(/C=C2/C(=O)Nc3cc(Cl)ccc32)ccc1O` [5c], the inhibition at 10 µM (CAKI-1) was 31.6%, the inhibition at 10 µM (CCRF-CEM) was 17% and the inhibition at 10 µM (HCC-2998) was 0.25%. The inhibition at 10 µM (HL-60(TB)) was 13.9%, the inhibition at 10 µM (HOP-92) was 24.8% and the inhibition at 10 µM (HS 578T) was 50.9%. The inhibition at 10 µM (M14) was 21.2%, the inhibition at 10 µM (MCF7) was 54.4% and the inhibition at 10 µM (MDA-MB-231/ATCC) was 50.8%. For the same compound, the inhibition at 10 µM (MDA-MB-468) was 28.5%, the inhibition at 10 µM (NCI-H522) was 25.4% and the inhibition at 10 µM (OVCAR-8) was 13%. For the same compound, the inhibition at 10 µM (PC-3) was 21.6%, the inhibition at 10 µM (RPMI-8226) was 17.9% and the inhibition at 10 µM (RXF 393) was 6.84%. It also gave an inhibition at 10 µM (SF-268) of 21.8%, an inhibition at 10 µM (SK-MEL-28) of 1.11% and an inhibition at 10 µM (SK-MEL-5) of 29.1%. The inhibition at 10 µM (SK-OV-3) was 2.42%, the inhibition at 10 µM (SN12C) was 15.2% and the inhibition at 10 µM (SNB-19) was 24.6%. For the same compound, the inhibition at 10 µM (SNB-75) was 59.5%, the inhibition at 10 µM (T-47D) was 49.2% and the inhibition at 10 µM (UACC-62) was 41.5%.

Work on `COc1cc(/C=C2/C(=O)Nc3ccc(Cl)cc32)ccc1OCc1ccccc1` [6f] yielded an inhibition at 10 µM (CAKI-1) of 7.2%, an inhibition at 10 µM (CCRF-CEM) of 1.07% and an inhibition at 10 µM (HCC-2998) of -7.18%. It also gave an inhibition at 10 µM (HL-60(TB)) of 0.49%, an inhibition at 10 µM (HOP-92) of 6.71% and an inhibition at 10 µM (HS 578T) of 3.94%. It also gave an inhibition at 10 µM (M14) of 0.98%, an inhibition at 10 µM (MCF7) of 19.2% and an inhibition at 10 µM (MDA-MB-231/ATCC) of 7.87%. It also gave an inhibition at 10 µM (MDA-MB-468) of 5.59%, an inhibition at 10 µM (NCI-H522) of 9.25% and an inhibition at 10 µM (OVCAR-8) of -6.25%. The inhibition at 10 µM (PC-3) was 10%, the inhibition at 10 µM (RPMI-8226) was -5.21% and the inhibition at 10 µM (RXF 393) was -11.6%. For the same compound, the inhibition at 10 µM (SF-268) was 5.46%, the inhibition at 10 µM (SK-MEL-28) was -4.79% and the inhibition at 10 µM (SK-MEL-5) was 1.24%. For the same compound, the inhibition at 10 µM (SK-OV-3) was -9.53%, the inhibition at 10 µM (SN12C) was 3.2% and the inhibition at 10 µM (SNB-19) was 3.8%. The inhibition at 10 µM (SNB-75) was 7.95%, the inhibition at 10 µM (T-47D) was 5.17% and the inhibition at 10 µM (UACC-62) was 11.5%.

`COc1ccc(COc2ccc(/C=C3/C(=O)Nc4ccc(Cl)cc43)cc2OC)cc1` [6i] gave an inhibition at 10 µM (CAKI-1) of 15.4%, an inhibition at 10 µM (CCRF-CEM) of 1.43% and an inhibition at 10 µM (HCC-2998) of -4.23%. For the same compound, the inhibition at 10 µM (HL-60(TB)) was 0.37%, the inhibition at 10 µM (HOP-92) was 7.13% and the inhibition at 10 µM (HS 578T) was -2.52%. For the same compound, the inhibition at 10 µM (M14) was 0.06%, the inhibition at 10 µM (MCF7) was 22.3% and the inhibition at 10 µM (MDA-MB-231/ATCC) was -0.06%. For the same compound, the inhibition at 10 µM (MDA-MB-468) was 5.64%, the inhibition at 10 µM (NCI-H522) was 5.36% and the inhibition at 10 µM (OVCAR-8) was 1.18%. For the same compound, the inhibition at 10 µM (PC-3) was 11.3%, the inhibition at 10 µM (RPMI-8226) was 1.88% and the inhibition at 10 µM (RXF 393) was -7.98%. It also gave an inhibition at 10 µM (SF-268) of -0.7%, an inhibition at 10 µM (SK-MEL-28) of -6.77% and an inhibition at 10 µM (SK-MEL-5) of 0.21%. It also gave an inhibition at 10 µM (SK-OV-3) of -8.16%, an inhibition at 10 µM (SN12C) of 1.92% and an inhibition at 10 µM (SNB-19) of 2.61%. The inhibition at 10 µM (SNB-75) was 11%, the inhibition at 10 µM (T-47D) was -5.11% and the inhibition at 10 µM (UACC-62) was 17.9%.
